Legend:
Assay type in all cases: cell-based
murine CCR2 [1] = biological target: T1, murine CCR2 (Mus musculus, UniProt P51683); assay: Functional β-arrestin recruiting test with human MCP-1 (B-2a); details: U2OS β-arrestin cell line transfected with murine CCR2; agonist human MCP-1 at EC50 (about 3 nM)
T1 construct: host or cells: U2OS β-arrestin cell line
Experimental: (§1) The antagonistic action of test substances on CCR2 was determined in a β-arrestin test. The PathHunter β-arrestin GPCR test system (DiscoveRx Corporation, Ltd.) is a cell-based functional method for detecting binding of β-arrestin to an activated receptor. The molecular basis is a β-galactosidase complementation measured by the enzymatic conversion of a chemiluminescent substrate. The test cell used was a U2OS β-arrestin cell line transfected with murine CCR2 (93-0543C3, DiscoveRx Corporation, Ltd.).
(§2) The test substances were dissolved in dimethyl sulphoxide (DMSO) at a concentration of 10 mM and serially diluted with DMSO in steps of 1:3.16 for a 10-point dose/activity analysis. According to the desired test concentrations, the substances were pre-diluted in Tyrode with 2 mM CaCl2 and 0.05% BSA.
(§3) The cells, cultivated in MEM Eagle (supplemented with 10% FCS, 50 U/ml of penicillin, 50 μg/ml of streptomycin, 250 μg/ml of hygromycin and 500 μg/ml of geniticin), were sown at 2000 cells/25 μl in 384 well, μCLEAR/black cell culture plates from Greiner (#781092) and incubated at 37° C. for 24 h. The sowing medium consisted of Opti-MEM (supplemented with 1% FCS, 50 U/ml of penicillin and 50 μg/ml of streptomycin). The cells were pre-incubated for 10 min with 10 μl of the test substances diluted in buffer, and 10 μl of agonist solution [human MCP-1 (PeproTech, #300-04) in Tyrode with 0.05% BSA] were then added. The human MCP-1 was employed at the concentration which corresponds to the EC50 which had been determined in a preliminary test (usually about 3 nM). After 90 min of incubation at 37° C., the solution was removed, and recruitment of β-arrestin to CCR2 was detected with the aid of the PathHunter detection reagent (93-001, DiscoveRx Corporation, Ltd.) according to the instructions of the manufacturer. Luminescence was measured after an incubation time of 60 min using a proprietary luminescence imaging measuring instrument. The molar concentration of the test substance which caused 50% inhibition of the MCP-1 effect (IC50) was determined using a 4-parameter logistic function (Hill function).

human CCR2 = biological target: T2, human CCR2 (Homo sapiens, UniProt P41597); assay: Functional Ca2+ release test (B-1); details: Chem-1 cell line transfected with human CCR2, inhibition of MCP-1 effect, MCP-1 at EC50 (about 5 nM), Fluo-4
T2 construct: host or cells: Chem-1 cell line
T2 sequence (P41597 1-360 isoform P41597-2): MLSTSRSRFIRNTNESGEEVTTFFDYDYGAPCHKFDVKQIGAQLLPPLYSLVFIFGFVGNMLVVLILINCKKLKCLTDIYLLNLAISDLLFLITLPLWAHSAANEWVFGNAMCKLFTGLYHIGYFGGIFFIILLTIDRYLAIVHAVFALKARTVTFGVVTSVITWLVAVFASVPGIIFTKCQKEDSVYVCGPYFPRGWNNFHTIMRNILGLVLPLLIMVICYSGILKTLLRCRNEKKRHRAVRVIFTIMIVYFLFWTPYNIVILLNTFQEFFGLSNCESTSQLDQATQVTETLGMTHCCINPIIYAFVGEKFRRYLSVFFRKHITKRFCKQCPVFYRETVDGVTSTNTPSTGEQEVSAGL
Experimental: The antagonistic action of test substances on CCR2 was determined in a functional Ca^2+ release test. Binding of CCL2/MCP-1 to CCR2 leads to a change in the conformation of the receptor resulting in Gi/Gq protein activation and intracellular signal cascade. This involves, inter alia, an intracellular Ca^2+ release. The test cell used was a Chem-1 cell line transfected with human CCR2 (ChemiSCREEN™ CCR2B Calcium-Optimized FLIPR Cell Line, Merck Millipore).
as §2
The cells, cultivated in DMEM high glucose [supplemented with 10% FCS, 1 mM pyruvate, 15 mM HEPES, 500 μg/ml geniticin and non-essential amino acids (NEAA)], were sown at 5000 cells/25 μl in 384 well, μCLEAR/black cell culture plates from Greiner (#781092) and incubated at 37° C. for 24 h. The sowing medium consisted of DMEM high glucose [supplemented with 5% FCS, 1 mM pyruvate, 15 mM HEPES, 50 U/ml penicillin, 50 μg/ml streptomycin and non-essential amino acids (NEAA)]. The medium was then removed and the cells were charged for 60 min at 37° C. with Fluo-4 dye [25 μl Tyrode with 3 μM Fluo-4 AM (1 mM DMSO stock solution), 0.4 mg/ml Brilliant Black, 2.5 mM probenicid, 0.03% Pluronic F-127]. The cells were pre-incubated for 10 min with 10 μl of the test substances diluted in buffer, and 20 μl of agonist solution (MCP-1 in Tyrode with 0.05% BSA) were then added. MCP-1 was employed at the concentration which corresponds to the EC50 which had been determined in a preliminary test (usually about 5 nM). Ca^2+ release was monitored over a period of 120 s in 1 s increments in a proprietary fluorescence imaging reader. The molar concentration of the test substance which caused 50% inhibition of the MCP-1 effect (IC50) was determined using a 4-parameter logistic function (Hill function).

murine CCR2 [2] = biological target: T1, murine CCR2; assay: Functional β-arrestin recruiting test with murine MCP-1 (B-2b); details: U2OS β-arrestin cell line transfected with murine CCR2; agonist murine MCP-1
Experimental: as §1, §2, §3
The test was carried out in a manner identical to that described above under B-2a, but using murine MCP-1 (PeproTech, #250-10) as agonist.

T1 sequence (P51683 whole entry): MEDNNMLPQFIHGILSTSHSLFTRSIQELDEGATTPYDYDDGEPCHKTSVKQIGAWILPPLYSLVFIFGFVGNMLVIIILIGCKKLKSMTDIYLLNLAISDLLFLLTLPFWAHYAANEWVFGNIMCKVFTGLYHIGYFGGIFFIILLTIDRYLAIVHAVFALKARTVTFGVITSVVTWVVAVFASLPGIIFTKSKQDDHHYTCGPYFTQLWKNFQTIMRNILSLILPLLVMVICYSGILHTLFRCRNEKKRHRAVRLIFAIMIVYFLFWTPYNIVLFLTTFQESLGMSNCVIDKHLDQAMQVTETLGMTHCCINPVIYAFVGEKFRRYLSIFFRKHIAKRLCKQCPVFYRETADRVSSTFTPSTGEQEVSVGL

| Structure (SMILES) | IC50 (murine CCR2 [1]) | IC50 (human CCR2) | IC50 (murine CCR2 [2]) |
| --- | --- | --- | --- |
| Nc1nc(C(F)(F)F)c(Cc2ccc(Cl)c(Cl)c2)c(=O)[nH]1 [Example 1, 2-Amino-5-(3,4-dichlorobenzyl)-6-(trifluoromethyl)pyrimidin-4(3H)-one] | 200 nM | 19 nM | 312 nM |
| Nc1nc(C(F)(F)F)c(S(=O)(=O)c2ccc(Cl)c(Cl)c2)c(=O)[nH]1 [Example 63] | – | 326 nM | 2200 nM |
| CCNc1nc(C(F)(F)F)c(Oc2ccc(Cl)c(Cl)c2)c(=O)[nH]1 [Example 64, 5-(3,4-Dichlorophenoxy)-2-(ethylamino)-6-(trifluoromethyl)pyrimidin-4(3H)-one] | – | 13 nM | 2700 nM |
| CC(C)Nc1nc(C(F)(F)F)c(Oc2ccc(Cl)c(Cl)c2)c(=O)[nH]1 [Example 65] | – | 121 nM | 1630 nM |
| CNc1nc(C(F)(F)F)c(Oc2ccc(Cl)c(Cl)c2)c(=O)[nH]1 [Example 66] | – | 9.8 nM | 506 nM |
| O=c1[nH]c(C2CCC2)nc(C(F)(F)F)c1Oc1ccc(Cl)c(Cl)c1 [Example 69] | – | 32 nM | 523 nM |
| CC(c1ccc(Cl)c(Cl)c1)c1c(C(F)(F)F)nc(N)[nH]c1=O (stereo not shown) [Example 70] | – | 45 nM | 3710 nM |
| Nc1nc(C(F)(F)F)c(Oc2ccc(Cl)cc2)c(=O)[nH]1 [Example 73] | – | 38 nM | 2310 nM |
| Nc1nc(C(F)(F)F)c(Oc2ccc(C(F)(F)F)cc2)c(=O)[nH]1 [Example 74] | – | 50 nM | 4160 nM |
| Nc1nc(C(F)(F)F)c(Oc2cccc(C(F)(F)F)c2)c(=O)[nH]1 [Example 75] | – | 21 nM | 9490 nM |

The next compounds have a lower IC50 (human CCR2) than those just listed; values first:

| IC50 (murine CCR2 [1]) | IC50 (human CCR2) | IC50 (murine CCR2 [2]) | Structure (SMILES) |
| --- | --- | --- | --- |
| 23 nM | 3.3 nM | 69 nM | Nc1nc(C(F)(F)F)c(Oc2ccc(Cl)c(C(F)(F)F)c2)c(=O)[nH]1 [Example 2, 2-Amino-5-[4-chloro-3-(trifluoromethyl)phenoxy]-6-(trifluoromethyl)pyrimidin-4(3H)-one] |
| 49 nM | 3.4 nM | 280 nM | Nc1nc(C(F)(F)F)c(Oc2ccc(Cl)c(Cl)c2)c(=O)[nH]1 [Example 3, 2-Amino-5-(3,4-dichlorophenoxy)-6-(trifluoromethyl)pyrimidin-4(3H)-one] |
| – | 2.4 nM | 1720 nM | Cc1ccc(Oc2c(C(F)(F)F)nc(N)[nH]c2=O)cc1Cl [Example 71] |
| – | 1.5 nM | 545 nM | Cc1cc(Oc2c(C(F)(F)F)nc(N)[nH]c2=O)ccc1Cl [Example 72] |
